From patent publication US20130273649A1, “Culture medium for pluripotent stem cells” (UNIVERSITY OF SOUTHERN CALIFORNIA, priority 2012, published 2013)

Legend:
CD1 EpiSCs = assay: Clonogenicity: colony formation after single-cell deposition of EpiSCs; assay type: cell-based, mouse; conditions: 96-well plate, CHIR only
Method: (A) Representative phase-contrast images of CD1 mouse EpiSCs cultured in the indicated conditions. […] (B) Phase-contrast image showing differentiating CD1 mouse EpiSCs at the 2nd passage in GMEM/10% FBS with 2 μM XAV. (C) CD1 mouse EpiSCs were cultured in CHIR/XAV for 7 passages and were subsequently immunostained with indicated antibodies against pluripotency markers. (D) Numbers of undifferentiated colonies formed by day 9 after single-cell deposition of CD1 EpiSCs into 0.1% gelatin-coated 96-well plates and cultured in the conventional mouse ESC medium supplemented with the indicated small molecules or cytokines Results are shown as mean±s.d. of six biological replicates. (E) De novo derivation of mouse EpiSCs. Epiblast tissue (outlined in dashed line) of the E5.75 CD1 mouse embryo was dissected and cultured in CHIR/XAV. The outgrowth formed from the plated epiblast (middle panel) was disaggregated to establish a stable EpiSC line (right panel). Thirteen […] established from 13 plated CD1 mouse embryos. Scale bars, 50 μ[…]). See also FIG. 8. We compared the clonogenicity of EpiSCs cultured in different conditions. […] EpiSC colonies formed in CHIR/XAV were readily expanded to establish stable cell lines. […] As expected, in the CHIR/XAV condition, EpiSCs were readily derived from embryonic day (E) 5.75 embryos of CD1 and 129SvE mice (FIGS. 1E and 8B). […]

β-catenin = assay: Western blot of nuclear β-catenin in mouse EpiSCs; assay type: cell-based; conditions: 3 μM CHIR 12 h
Method: (A) Western blot analysis of cytoplasmic, nuclear and total β-catenin levels in CD1 mouse EpiSCs overexpressing Flag-tagged Axin1 or Axin2. Cells were either untreated or treated with 3 μM CHIR for 12 h. (B) Immunostaining of CD1 mouse EpiSCs overexpressing Flag-tagged Axin2 (C) Co-IP of Flag or β-catenin in CD1 mouse EpiSCs overexpressing empty vector or Flag-tagged Axin2. Cells were treated with 3 μM CHIR for 12 h (D) Immunostaining of ΔNβ-catenin-ERT2-overexpressing CD1 mouse EpiSCs before and after treatment with 1 μM 4-OHT. (E). Western blot analysis of cytoplasmic and nuclear ΔNβ-catenin-ERT2 levels after treatment with 1 μM 4-OHT for 24 h. (F). Phase contrast image of ΔNβ-catenin-ERT2-EpiSCs after 25 passages in basal medium only. (G) qRT-PCR analysis of Oct4, Nanog and Fgf5 mRNA levels in ΔNβ-catenin-ERT2-EpiSCs maintained in basal medium or basal medium plus FGF2/activin for 11 passages. Data represent mean±s.d. of three biological replicates. (H) Phase contrast image of ΔNβ-catenin-ERT2-EpiSCs after treatment with 1 μM 4-OHT for 24 h. […]
Next, we investigated how β-catenin mediates EpiSC self-renewal. […] To determine whether nuclear translocation of β-catenin is affected by Axin, we analyzed β-catenin protein levels in whole-cell, cytoplasmic and nuclear fractions before and after CHIR treatment. […] In Axin2-EpiSCs, Axin2 expression was mainly detected in the cytoplasm (FIG. 6B). […]

Axin2 = assay: Western blot of Axin2 in human ESCs; assay type: cell-based; conditions: human ESCs treated 24 h

Cc1c[nH]c(-c2cnc(NCCNc3ccc(C#N)cn3)nc2-c2ccc(Cl)cc2Cl)n1 [CHIR99021, 6-((2-((4-(2,4-Dichlorophenyl)-5-(4-methyl-1H-imidazol-2-yl)pyrimidin-2-yl)amino)ethyl)amino)nicotinonitrile]
undifferentiated colony formation from single EpiSC (CD1 EpiSCs): No undifferentiated colonies formed
nuclear β-catenin protein level (β-catenin; Axin2-EpiSCs): barely detectable
nuclear β-catenin protein level (β-catenin; vector-EpiSCs and Axin1-EpiSCs): dramatically increased
amount of Axin2 protein (Axin2): induced the expression of Axin2
